Assay results published in patent US20240010684A1, “MASP INHIBITORY COMPOUNDS AND USES THEREOF” (BAYER AKTIENGESELLSCHAFT, priority 2020, published 2024).
*1 amine or outer side, *2 acyl side, *3 side chain or, on linkers, in order; H or OH if unused. Where a SMILES comes first, the peptide text is derived from it. Bridges are numbered along the chain shown (N, C = ends). [ ]: non-standard residue; d: D form. Adipoyl = O=C(CCCCC(=O)[*:2])[*:1]; tBuAla = CC(C)(C)C[C@H](N)C(=O)O; Pen = CC(C)(S)[C@H](N)C(=O)O; Dap = NC[C@H](N)C(=O)O; Ahx = NCCCCCC(=O)O; Sar = CNCC(=O)O

Assays:
rat MASP2 = rat MASP2 (Rattus norvegicus (Rat), UniProt Q9JJS8); experiment: Biochemical rat MASP2 assay (FRET substrate); conditions: Average IC50; recombinant rat MASP2; read-out: rat MASP2 IC50
From the text: The MASP1 or MASP2 expression vectors were transfected into the HEK293 (ATCC No. CRL-1573) cell line using Lipofectamine LTX® Reagent (Thermo-Fischer), as described by the manufacturer. […] The MASP1 and M[…] were purified from the conditioned media by affinity chromatography on Ni-NTA Superflow resin (Qiagen) as described by the manufacturer.

human MASP2 = human MASP2 (Homo sapiens (Human), UniProt O00187); experiment: Biochemical human MASP2 assay (FRET substrate); conditions: Average IC50; recombinant human MASP2; read-out: human MASP2 IC50
In short: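 IC50 came from % inhibition across compound concentrations, with fluorescence (ex 340 nm, em 490 nm) read after 60-120 min at 32 C. Substrate was a DABCYL FRET peptide, added as a 60 μM solution, cleaved by HEK293-expressed, Ni-NTA-purified mature recombinant human MASP2.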

human MASP1 = human MASP1 (Homo sapiens (Human), UniProt P48740); experiment: Biochemical human MASP1 assay (FRET substrate); conditions: Average IC50; recombinant human MASP1; read-out: human MASP1 IC50
In short: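 IC50 derived from % inhibition versus compound concentration, with fluorescence increase read at 320/420 nm after 60-120 min at 32 C. Enzyme: HEK293-secreted, His-tagged human MASP1 fragment 297-699 at 20 nM in HEPES pH 8,0 buffer with NaCl, CHAPS, glutathione; substrate ABZ-peptide-Lys(Dnp)-NH2 added as 20 μM solution.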

rat MASP1 = rat MASP1 (Rattus norvegicus (Rat), UniProt Q8CHN8); experiment: Biochemical rat MASP1 assay (FRET substrate); conditions: Average IC50; recombinant rat MASP1; read-out: rat MASP1 IC50
From the text: A truncated cDNA sequence of rat MASP1encoding the fragment corresponding to the amino acids 302-704 with a C-terminal His Tag and N-terminal Ig-kappa secretion signal (SEQ ID No: 4) was subcloned into the mammalian expression vector pcDNA3.1 (Invitrogen).
The MASP1 or MASP2 expression vectors were transfected into the HEK293 (ATCC No. CRL-1573) cell line using Lipofectamine LTX® Reagent (Thermo-Fischer), as described by the manufacturer. The mature form of the recombinant rat MASP1 and MASP2 proteases were secreted into the culture medium. The MASP1 and MASP2 proteins were purified from the conditioned media by affinity chromatography on Ni-NTA Superflow resin (Qiagen) as described by the manufacturer.
4.2 Biochemical Rat MASP1 Assay.
Recombinant rat MASP1 enzyme produced in the HEK 293 cells was diluted in the reaction buffer (50 mM HEPES pH 8,0; 100 mM NaCl; 0,01% CHAPS; 0.5 mM Gluthathione) to the concentration of 4 nM and 25 μl was transferred into each single well of 384-well white microtiter plate (Greiner Bio One 781075). 1 μl of the inhibitor compound solution (dissolved in DMSO, at the corresponding concentration) or pure DMSO as a control was added to the same wells. The enzymatic reaction was initiated by addition of 25 μl of 40 μM solution of the FRET substrate Dabcyl-[…]-Glu(Edans)-NH2; (Dabcyl-4-((4-(dimethylamino)phenyl)azo)benzoic acid; Edans-5-[(2-Aminoethyl) amino]naphthalene-1-sulfonyl; custom synthesis by Jerini Peptide Technologies, Berlin) in the reaction buffer. The microtiter plate was incubated for 60-120 min at the temperature of 32 C. The increase of fluorescence intensity was measured in appropriate fluorescence plate reader (e.g. TECAN Ultra) using excitation wavelength of 340 nm and emission wavelength of 490 nm. IC50 values were calculated from percentage of inhibition of rat […] activity as a function of test compound concentration.

[1] = tested on: Human C3-DEPOSITION SERUM; experiment: C3 deposition assay, human serum on mannan-coated plates; type: biochemical; conditions: Average IC50, read-out: Human C3-DEPOSITION SERUM IC50
In short: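 Plates coated overnight at 4° C with S. cerevisiae mannan (10 μg/mL, pH 9.6), blocked with 1% BSA in TBS 2 h at 37° C; washes in TBS/0.05% Tween 20/5 mM CaCl2. Antibodies diluted in wash buffer with 0.5% BSA. Colorimetric read-out at 450 nm.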

Sequence of rat MASP1 (Q8CHN8 other isoform, or with tags, fused parts or gaps): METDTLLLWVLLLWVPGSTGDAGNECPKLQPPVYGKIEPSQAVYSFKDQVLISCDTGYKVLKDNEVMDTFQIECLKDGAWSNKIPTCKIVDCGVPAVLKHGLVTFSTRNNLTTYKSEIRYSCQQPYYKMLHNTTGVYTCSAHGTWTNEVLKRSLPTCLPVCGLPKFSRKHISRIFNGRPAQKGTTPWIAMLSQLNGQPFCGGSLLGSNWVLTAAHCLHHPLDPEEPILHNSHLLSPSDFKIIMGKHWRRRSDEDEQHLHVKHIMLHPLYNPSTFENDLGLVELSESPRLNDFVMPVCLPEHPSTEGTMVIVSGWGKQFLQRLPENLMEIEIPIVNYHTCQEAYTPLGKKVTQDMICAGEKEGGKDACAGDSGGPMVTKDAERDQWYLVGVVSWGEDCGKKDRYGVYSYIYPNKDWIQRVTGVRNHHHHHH
Sequence of human MASP2 (O00187 other isoform, or with tags, fused parts or gaps): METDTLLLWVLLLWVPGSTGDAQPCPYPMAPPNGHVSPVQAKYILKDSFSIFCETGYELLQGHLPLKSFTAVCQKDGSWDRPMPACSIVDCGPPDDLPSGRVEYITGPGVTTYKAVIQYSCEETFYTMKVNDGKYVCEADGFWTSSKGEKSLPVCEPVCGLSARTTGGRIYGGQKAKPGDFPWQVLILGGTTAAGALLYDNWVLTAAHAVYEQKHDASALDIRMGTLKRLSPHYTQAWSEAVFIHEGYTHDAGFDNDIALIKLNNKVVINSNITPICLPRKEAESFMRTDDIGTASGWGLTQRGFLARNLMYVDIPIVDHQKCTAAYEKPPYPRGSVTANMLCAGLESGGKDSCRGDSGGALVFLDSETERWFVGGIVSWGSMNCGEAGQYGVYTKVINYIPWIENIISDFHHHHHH
Sequence of rat MASP2 (Q9JJS8 other isoform, or with tags, fused parts or gaps): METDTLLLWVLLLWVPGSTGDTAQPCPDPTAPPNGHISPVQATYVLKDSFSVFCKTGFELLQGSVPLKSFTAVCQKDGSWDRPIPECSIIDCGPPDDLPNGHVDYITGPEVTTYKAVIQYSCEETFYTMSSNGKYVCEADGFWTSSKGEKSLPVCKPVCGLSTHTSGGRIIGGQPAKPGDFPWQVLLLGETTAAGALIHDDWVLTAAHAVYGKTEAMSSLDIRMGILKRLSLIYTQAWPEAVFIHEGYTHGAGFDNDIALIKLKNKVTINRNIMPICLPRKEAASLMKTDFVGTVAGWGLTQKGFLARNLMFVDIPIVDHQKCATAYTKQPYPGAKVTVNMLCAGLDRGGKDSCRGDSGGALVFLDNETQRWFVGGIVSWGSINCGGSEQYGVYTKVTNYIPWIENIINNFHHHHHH
Sequence of human MASP1 (P48740 other isoform, or with tags, fused parts or gaps): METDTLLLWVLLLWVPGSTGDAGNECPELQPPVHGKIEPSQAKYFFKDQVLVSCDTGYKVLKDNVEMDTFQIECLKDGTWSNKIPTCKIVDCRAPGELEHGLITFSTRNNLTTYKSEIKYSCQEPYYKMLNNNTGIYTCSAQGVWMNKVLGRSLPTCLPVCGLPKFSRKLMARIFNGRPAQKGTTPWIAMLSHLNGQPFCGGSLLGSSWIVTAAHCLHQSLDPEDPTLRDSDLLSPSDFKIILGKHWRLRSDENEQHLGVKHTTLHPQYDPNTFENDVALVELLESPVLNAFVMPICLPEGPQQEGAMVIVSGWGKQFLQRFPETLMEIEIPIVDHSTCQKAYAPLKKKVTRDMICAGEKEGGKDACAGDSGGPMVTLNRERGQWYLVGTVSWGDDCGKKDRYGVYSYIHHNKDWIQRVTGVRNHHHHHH

SMILES	IC50 (rat MASP2) [nM]	IC50 (human MASP2) [nM]	IC50 (human MASP1) [nM]	IC50 (rat MASP1) [nM]	IC50 [1] [nM]
CC[C@H](C)[C@@H]1NC(=O)CNC(=O)CNC(=O)[C@H](C)NC(=O)[C@@H](CC(=O)O)NC(=O)[C@@H]2CCCN2C(=O)[C@H]([C@@H](C)CC)NC(=O)[C@H]2NC(=O)[C@H]([C@@H](C)CC)NC(=O)[C@@H]3CCCN3C(=O)[C@@H]3CCCN3C(=O)[C@H](CC(C)(C)C)NC(=O)[C@H](CO)NC(=O)[C@H](CCCNC(=N)N)NC(=O)[C@H](CO)NC(=O)[C@H](CSSC2(C)C)NC1=O [Example 39] (cyclo(AGGICSRS[tBuAla]PPI[Pen]IP[dD]); disulfide 5-13)	8	75	6	44	33.6
CC[C@H](C)[C@@H]1NC(=O)[C@H](CN)NC(=O)[C@H](CN)NC(=O)[C@@H]2CCCN2C(=O)[C@H]([C@@H](C)CC)NC(=O)[C@H]2NC(=O)[C@H]([C@@H](C)CC)NC(=O)[C@@H]3C[C@@H]4CCCC[C@@H]4N3C(=O)[C@@H]3CCCN3C(=O)[C@H](CC(C)C)NC(=O)[C@H](CO)NC(=O)[C@H](CCCNC(=N)N)NC(=O)[C@H](CO)NC(=O)[C@H](CSSC2(C)C)NC1=O [Example 89]	64	91	5.7	290	18.5
CC[C@H](C)[C@@H]1NC(=O)CCCNC(=O)[C@H](CC(=O)O)NC(=O)[C@@H]2CCCN2C(=O)[C@H]([C@@H](C)CC)NC(=O)[C@H]2NC(=O)[C@H]([C@@H](C)CC)NC(=O)[C@@H]3CCCN3C(=O)[C@@H]3CCCN3C(=O)[C@H](CC(C)(C)C)NC(=O)[C@H](CO)NC(=O)[C@H](CCCNC(=N)N)NC(=O)[C@H](CO)NC(=O)[C@H](CSSC2(C)C)NC1=O [Example 35]	24	17	4.1	63	3.3
CC[C@H](C)[C@@H]1NC(=O)CN(C)C(=O)CCCCCNC(=O)[C@H]([C@@H](C)CC)NC(=O)[C@H]2NC(=O)[C@H]([C@@H](C)CC)NC(=O)[C@@H]3CCCN3C(=O)[C@@H]3CCCN3C(=O)[C@H](CC(C)(C)C)NC(=O)[C@H](CO)NC(=O)[C@H](CCCNC(=N)N)NC(=O)[C@H](CO)NC(=O)[C@H](CSSC2(C)C)NC1=O [Example 64, N-{3-[(5aS,11S,14S,17S,20S,23R,26S,39S,42R,45S,47aS)-26,39,45-tri[(2S)-butan-2-yl]-11-(2,2-dimethylpropyl)-14,20-bis(hydroxymethyl)-30,48,48-trimethyl-5,10,13,16,19,22,25,28,31,38,41,44,47-tridecaoxohexatetracontahydro-5H-23,42-(methanodithiomethano)dipyrrolo[2,1-1:2′,1′-o][1,4,7,10,13,16,19,22,25,28,31,34,37]tridecaazacyclotritetracontin-17-yl]propyl}guanidine] (cyclo([Ahx][Sar]ICSRS[tBuAla]PPI[Pen]I); disulfide 4-12)	13	12	9.4	157	17.8
CC[C@H](C)[C@@H]1NC(=O)CCCCC(=O)NC[C@@H](C(N)=O)NC(=O)[C@H](CC(=O)O)NC(=O)[C@@H]2CCCN2C(=O)[C@H]([C@@H](C)CC)NC(=O)[C@H]2NC(=O)[C@H]([C@@H](C)CC)NC(=O)[C@@H]3CCCN3C(=O)[C@@H]3CCCN3C(=O)[C@H](CC(C)(C)C)NC(=O)[C@H](CO)NC(=O)[C@H](CCCNC(=N)N)NC(=O)[C@H](CO)NC(=O)[C@H](CSSC2(C)C)NC1=O [Example 60] (ICSRS[tBuAla]PPI[Pen]IPD[Dap]-NH2; disulfide 2-10; linker N-14 via Adipoyl)	13	5.4	58	330	20.5
CC[C@H](C)[C@@H]1NC(=O)[C@H](C)NC(=O)CCCCCNC(=O)[C@@H]2CCCN2C(=O)[C@H]([C@@H](C)CC)NC(=O)[C@H]2NC(=O)[C@H]([C@@H](C)CC)NC(=O)[C@@H]3CCCN3C(=O)[C@@H]3CCCN3C(=O)[C@H](CC(C)(C)C)NC(=O)[C@H](CO)NC(=O)[C@H](CCCNC(=N)N)NC(=O)[C@H](CO)NC(=O)[C@H](CSSC2(C)C)NC1=O [Example 53, N-{3-[(6S,9S,12S,15S,18R,21S,24S,33aS,39S,42R,45S,47aS,52aS)-21,39,45-tri[(2S)-butan-2-yl]-6-(2,2-dimethylpropyl)-9,15-bis(hydroxymethyl)-24,53,53-trimethyl-5,8,11,14,17,20,23,26,33,38,41,44,47,52-tetradecaoxopentacontahydro-1H,5H-18,42-(methanodithiomethano)tripyrrolo[2,1-c:2′,1′-o:2″,1″-r][1,4,7,10,13,16,19,22,25,28,31,34,37,40]tetradecaazacyclohexatetracontin-12-yl]propyl}guanidine] (cyclo(AICSRS[tBuAla]PPI[Pen]IP[Ahx]); disulfide 3-11)	19	83.5	6.75	96	44.5
